Data: BigSolDB 2.1

Conditions: 298.15 K

O=[N+]([O-])c1cccc2ccccc12
Conditions | solubility (mole fraction)
in 2-ethylhexanol | 0.0411
in 2-methyl-1-butanol | 0.0297
in 2-methyl-1-pentanol | 0.0367
in 2-pentanol | 0.0324
in 4-methyl-2-pentanol | 0.0311
in MTBE | 0.214
in acetonitrile | 0.328
in benzene | 0.423
in butyronitrile | 0.383
in cyclohexane | 0.025
in cyclooctane | 0.036
in cyclopentanol | 0.0599
in dibutyl ether | 0.0996
in diethyl ether | 0.237
in diisopropyl ether | 0.104
in ethanol | 0.0277
in ethylene glycol | 0.00463
in isobutanol | 0.0173
in isooctane | 0.0163
in isopentanol | 0.032
in isopropanol | 0.0213
in methylcyclohexane | 0.0277
in n-butanol | 0.0348
in n-decane | 0.0274
in n-decanol | 0.0666
in n-heptane | 0.0198
in n-heptanol | 0.0539
in n-hexadecane | 0.0394
in n-hexane | 0.0174
in n-hexanol | 0.0493
in n-nonane | 0.0252
in n-octane | 0.0223
in n-octanol | 0.0593
in n-pentanol | 0.0424
in n-propanol | 0.0295
in propionitrile | 0.37
in sec-butanol | 0.0331
in tert-butanol | 0.0228
in tert-butylcyclohexane | 0.0303
in toluene | 0.421
in undecane | 0.0293
